Read-outs that look alike come from different tables or passages of the source.
Legend:
[1] = system: ES-cell derived cardiomyocytes; test: Beating frequency of ES cell-derived cardiomyocytes (contractions counted manually during 15 sec); format: cell-based, mouse; conditions: cardiomyocytes 25 days after start of differentiation
Method: Gated cardiomyocytes where cultivated in 6 cm tissue culture dishes. Fresh medium was supplemented with the test compound in concentrations ranging from 0.01-10 μM. For heat shock treatment the cells where incubated at 42° C. for 30 min. Mock treated cells served as control. Effects on the cardiomyocyte beating rate where recorded by manually counting the number of contractions during 15 sec. Beating rates have been recorded before addition of substances and 15 min and 4h after addition. After 4h of incubation the cells where washed with PBS, collected in reporter lysis buffer (RLB, Promega) and stored at −80° C.
Effects of noradrenaline are mediated via alpha and beta-adrenergic receptors, while isoproterenol effects are mediated specific via β-adrenergic receptors. Since β1 receptors play a pivotal role in mediating the beating rate, we analyzed changes in beating frequency of cardiomyocytes as a first indication of a response towards the tested compounds. The beating rate of a individual cluster per plate has been recorded before, 15 min after application of the stimulus and after 4h incubation. FIG. 3 summarizes the data of such an analysis using cardiomyocytes 25 days after start of differentiation. […] Due to the low starting beating frequency in some cases the x-fold increase is quite high. Nevertheless these elevated beating frequencies where still in the physiological range. […]

[2] = system: CT-1 promoter; test: CT1-promoter luciferase reporter activity in ES cell-derived cardiomyocytes; format: cell-based, mouse; conditions: 0.1 μM, incubation for 4h, corrected for total protein
Method: Gated cardiomyocytes where cultivated in 6 cm tissue culture dishes. Fresh medium was supplemented with the test compound in concentrations ranging from 0.01-10 μM. For heat shock treatment the cells where incubated at 42° C. for 30 min. Mock treated cells served as control. […] After 4h of incubation the cells where washed with PBS, collected in reporter lysis buffer (RLB, Promega) and stored at −80° C. The Luciferase-activity in the thawed lysates was measured by flash-light Luciferase assay (Promega). In order to quantify Luciferase-activity a serial diluted recombinant Luciferase standard was analyzed in parallel. Values for Luciferase-activity where correct for the amount of total protein in the lysates measured by BCA-assay (Pierce). The transcriptional activity of the CT1-promoter was analyzed by measurement of Luciferase activity in the cellular lysates.

[3] = system: cardiomyocyte nuclei in the ventricular septum; parameters: species or system mice; conditions: mouse, in vivo, 7 days
Method: Cryosections (10 μm) were generated using standard histologic techniques. For ISEL analysis, cryosections were processed using the Oncogene Research KLENOW-FragEL DNA Fragmentation Detection Kit. Signal was developed with biotinylated nucleotides and horseradish peroxidase (HRP) conjugated streptavidin (Roche Molecular Biochemicals). Signal was generated by incubation with diaminobenzidine using standard techniques. Beta-galactosidase activity was detected in the same sections via X-GAL staining as described (Soonpaa M. H. et al. (1994) Science 264: 98-101).
Isoproterenol is a beta-adrenergic agonist that induces cardiomyocyte hypertrophy both in vitro and in vivo. Prolonged exposure to isoproterenol is cardiotoxic, inducing cardiomyocyte apoptosis via a mechanism similar to that encountered during the progression of heart failure. The MHC-1152stp mice were tested to determine if transgene expression was cardioprotective during isoproterenol infusion, and specifically to see if 1152stp expression could antagonize isoproterenol-induced cardiomyocyte apoptosis. […]
Mice with a MHC-1152stp/MHC-nLAC genotype and a (−)/MHC-nLAC genotype were culled, and at 12 weeks of age were implanted with isoproterenol-filled osmotic mini-pumps, as described in several studies from our group (Soonpaa M. H. and Field L. J. (1994) American Journal of Physiology 266 (Heart and Circulatory Physiology 35): H1439-1445; Pasumarthi K. B., Nakajima H., Nakajima H. O., Jing S., Field L. J. (2000) Circ Res. 86: 1069-1077). […] Cardiomyocyte apoptosis was then calculated simply by determining the incidence of black HRP signal over blue nuclear staining; these analyses focused on cardiomyocytes residing in the ventricular septum, where the cardiotoxic effects of isoproterenol appear to be most pronounced. […]

[4] = MHC-nLAC transgenic ((−)/MHC-nLAC genotype)

% ISEL Positive ([3]; (−)/MHC-nLAC transgenic) [%] | % ISEL Positive [3, 4] [%] | ISEL Positive CM Nuclei [3, 4] | SMILES | change in beating frequency ([1]; recorded before, 15 min and 4h after application, 0.01-10 μM) | increase of CT1-promoter activity (Luciferase activity) compared to the untreated control [2] | change in beating frequency ([1]; 0.1 μM)
 |  |  | NC[C@H](O)c1ccc(O)c(O)c1 [noradrenaline] | dose dependent increase | 1.73 fold | 
~0.1 | 0.098 | 35 of 35604 | CC(C)NCC(O)c1ccc(O)c(O)c1 (stereo not shown) [isoproterenol] |  |  | 
 |  |  | CN(C)CCCN1c2ccccc2CCc2ccccc21 [imipramine] |  | more than 2 fold | increase in beating frequencies
